Assay results: patent US20240261356A1, “COMPOSITION CONTAINING ACANTHOPANAX EXTRACT AND GARCINIA CAMBOGIA EXTRACT OR COMPOUND ISOLATED THEREFROM AS ACTIVE INGREDIENT FOR PREVENTION OR TREATMENT OF LIVER DISEASE” (KOREA RESEARCH INSTITUTE OF BIOSCIENCE AND BIOTECHNOLOGY, priority 2021, published 2024)

Assays:
[1] = test system: HepG2 cells; assay: Fatty acid-induced intracellular fat accumulation (BODIPY fluorescence) in non-alcoholic fatty liver cell model; type: cell-based, human
Protocol: The human liver-derived HepG2 cell line was purchased from American Type Culture Collection (ATCC, VA, USA). HepG2 cells were cultured at 37° C. in an incubator supplied with 5% carbon dioxide. For the cell culture, MEM (Gibco Cat No. 11095-098) medium containing 10% fetal bovine serum (FBS) and 1% antibiotics (Penicillin-streptomycin, Gibco) was used. HepG2 cells were seeded in a 96-well plate at 1×10^4 cells/well, and, after 24 hours, treated with 150 μM oleic acid (Sodium oleate, Sigma, USA) for 24 hours to increase intracellular fat accumulation. The drug treated group was treated 1 hour before being treated with oleic acid. Upon completion of the experiment, the cells were fixed with 4% formaldehyde for 10 minutes and washed twice with PBS buffer. A solution containing […] (Invitrogen Corporation, NY, USA) was added and cultured at room temperature for 30 minutes. At this time, the final concentration of the fluorescent dye BODIPY was 2 μg/ml. After completion of the reaction, the plate was washed three times with PBS buffer, and, when only the minimum amount of PBS remained, the fluorescence was quantified by using a SpectraMax M4 microplate reader (Molecular Devices, USA). At this time, the excitation wavelength was 485 nm, and the emission was 525 nm. The experiment was performed by blocking light with aluminum foil to allow in as little light as possible.

[2] = test system: HepG2 cells; assay: Cell viability (CCK-8) of fatty acid-induced non-alcoholic fatty liver cell model; type: cell-based, human; settings: Table 6, Garcinia extract 0 + Chiisanogenin 6 μg/ml
Protocol: The human liver-derived HepG2 cell line was purchased from American Type Culture Collection (ATCC, VA, USA). HepG2 cells were cultured at 37° C. in an incubator supplied with 5% carbon dioxide. For the cell culture, MEM (Gibco Cat No. 11095-098) medium containing 10% fetal bovine serum (FBS) and 1% antibiotics (Penicillin-streptomycin, Gibco) was used. HepG2 cells were seeded in a 96-well plate at 1×10^4 cells/well, and, after 24 hours, treated with 150 μM oleic acid (Sodium oleate, Sigma, USA) for 24 hours to increase intracellular fat accumulation. The drug treated group was treated 1 hour before being treated with oleic acid. […] After completion of the reaction, the plate was washed three times with PBS buffer, and, when only the minimum amount of PBS remained, the fluorescence was quantified by using a SpectraMax M4 microplate reader (Molecular Devices, USA). […]
In the experimental conditions of the present invention, cell viability was determined by mixing 90 μl of medium with 10 μl of CCK-8 solution, adding 100 μl per well and reacting the mixture for at least 30 minutes to 1 hour, followed by measurement of the absorbance at 450 nm, as described in the CCK-8 (Dojindo) kit. The cell viability was calculated according to Equation 1 below, taking the negative control as 100%, and the results are shown in Tables 8 and 9 below.

[3] = test system: non-alcoholic steatohepatitis (NASH) animal models; assay: AST in serum of non-alcoholic steatohepatitis (NASH) animal model; type: in vivo, C57bl/6J mice; settings: NASH mice, 8 weeks, Chiisanogenin 50 mg/kg
Protocol: (§1) 8-week-old male C57bl/6J mice were fed a NASH-inducing diet (#A06071302 diet) for 8 weeks, and, from the 9th week, single samples (i.e., Garcinia extract, Acanthopanax extract or Chiisanogenin) and a composite sample thereof were administered for 8 weeks, together with NASH dietary feed (#A06071302 diet). To verify the efficacy of each of the Garcinia extract (notified raw material, 60% HCA) and Chiisanogenin or their mixture at each non-clinical administration concentration by using a non-alcoholic steatohepatitis (NASH)-induced animal model, changes of aspartate aminotransferase (AST) and alanine aminotransferase (ALT), which are biomarkers of liver tissue damage, in the serum of the non-alcoholic steatohepatitis (NASH) C57bl/6J mouse models caused by feeding NASH-inducing dietary feed (#A06071302) were observed, and the results are shown in Tables 11 and 12, respectively. In addition, the results of observing changes of hydroxyproline, which is a biomarker of liver fibrosis, in liver tissues are shown in Table 13.

[4] = test system: non-alcoholic steatohepatitis (NASH) animal models; assay: ALT in serum of non-alcoholic steatohepatitis (NASH) animal model; type: in vivo, C57bl/6J mice; settings: NASH mice, 8 weeks, Chiisanogenin 50 mg/kg
Protocol: as §1

[5] = test system: non-alcoholic steatohepatitis (NASH) animal models; assay: Fibrosis marker hydroxyproline in liver tissue of NASH animal model; type: in vivo, C57bl/6J mice; settings: NASH mice, 8 weeks, Chiisanogenin 50 mg/kg
Protocol: as §1

SMILES: C=C(C)[C@@H]1CC[C@]2(C(=O)O)CC[C@]3(C)[C@H](C[C@H]4OC(=O)C[C@@H](O)[C@]5(C)[C@@H]4[C@@]3(C)CC[C@H]5C(=C)C)[C@@H]12 [Chiisanogenin]
- inhibition at 6 µg/mL ([1]; Homo sapiens, HepG2, Table 4, fat accumulation, Garcinia extract 0 + Chiisanogenin 6 μg/ml, read-out: Inhibition rate (%)): 80%
- TG (% relative to positive control group, mean ± deviation) ([1]; Table 4, Garcinia extract 0 + Chiisanogenin 6 μg/ml): 64 ± 7.9 %
- Cell viability (%, mean ± deviation) [2]: 105 ± 13.7%
- AST in serum (% relative to positive control group, mean ± deviation) [3]: 97 ± 15.4%
- Inhibition rate (%, mean ± deviation) ([3]; serum AST): 4 ± 19.8%
- ALT in serum (% relative to positive control group, mean ± deviation) [4]: 89 ± 14.6%
- Inhibition rate (%, mean ± deviation) ([4]; serum ALT): 12 ± 5.1%
- Hydroxyproline in liver tissues (% relative to positive control group, mean ± deviation) [5]: 69 ± 28%
- Inhibition rate (%, mean ± deviation) ([5]; liver hydroxyproline): 26 ± 11.9%
